Assay results published in patent US7037931B2, “CCK-1 receptor modulators” (Janssen Pharmaceutica N.V., priority 2002, dated 2006).

| melting point [°C] | Structure (SMILES) |
| --- | --- |
| 280 to 285 | COc1ccc(-n2nc(C[C@H](C(=O)[O-])c3cccc(C)c3)cc2-c2ccc(Cl)c(Cl)c2)cc1.[Na+] (stereo in doubt) [Example 505] |
| 295.5 to 297.5 | COc1ccc(-n2nc(C[C@H](C(=O)[O-])c3cccc(C)c3)cc2-c2ccc(Cl)c(Cl)c2)cc1.[Na+] [Example 1, (S)-Sodium; 3-[5-(3,4-dichloro-phenyl)-1-(4-methoxy-phenyl)-1H-pyrazol-3-yl]-2-m-tolyl-propionate] |
| 39.5 to 43.2 | CON(C)C(=O)c1ccc(Cl)c(Cl)c1 [Example 511, 3,4-Dichloro-N-methoxy-N-methyl-benzamide] |
